The structures appear in SMILES notation.

In experiment [1] the target is T1, BRAF V600E (Homo sapiens, UniProt P15056, V600E).
T1 construct: expressed in transfected cells
The experiment in a line: Cellular assay of target protein degradation, T-Rex 293 cells stably transfected with HA-BRAF_V600E (HA immunofluorescence, high content imaging). Format: cell-based. The conditions noted are these: T-Rex 293 HA-BRAF V600E; for DC50: half maximal degradation, read-out: BRaf V600E DC50; for Dmax: maximum degradation observed. The procedure, abridged:
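24 h compound exposure, 1 μM–0.1 nM final, 0.1% DMSO, 37 °C; cells induced with 1 ng/mL doxycycline. PFA fix, Triton permeabilize, anti-HA overnight 4 °C, Hoechst/phalloidin counterstain. Output: DC50, Dmax as % control.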

The target in experiment [2] is T2, BRAF G466V (Homo sapiens, UniProt P15056, G466V).
T2 construct: expressed in transfected cells
Description: Cellular assay of target protein degradation, T-Rex 293 cells stably transfected with HA-BRAF G466V (HA immunofluorescence, high content imaging). Format: cell-based. The conditions noted are these: T-Rex 293 HA-BRAF G466V; for DC50: half maximal degradation, read-out: BRaf G466V DC50; for Dmax: maximum degradation observed. The procedure, abridged: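 24 h compound, 30 nM–3 pM final, 0.1% DMSO, 37° C; HA-BRAF G466V induced with 0.75 ng/mL doxycycline. PFA fix, Triton perm, anti-HA + Alexa fluor secondary, Hoechst/phalloidin counterstain; imaging. DC50, Dmax (% of control).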

T1 sequence (P15056 whole entry V600E): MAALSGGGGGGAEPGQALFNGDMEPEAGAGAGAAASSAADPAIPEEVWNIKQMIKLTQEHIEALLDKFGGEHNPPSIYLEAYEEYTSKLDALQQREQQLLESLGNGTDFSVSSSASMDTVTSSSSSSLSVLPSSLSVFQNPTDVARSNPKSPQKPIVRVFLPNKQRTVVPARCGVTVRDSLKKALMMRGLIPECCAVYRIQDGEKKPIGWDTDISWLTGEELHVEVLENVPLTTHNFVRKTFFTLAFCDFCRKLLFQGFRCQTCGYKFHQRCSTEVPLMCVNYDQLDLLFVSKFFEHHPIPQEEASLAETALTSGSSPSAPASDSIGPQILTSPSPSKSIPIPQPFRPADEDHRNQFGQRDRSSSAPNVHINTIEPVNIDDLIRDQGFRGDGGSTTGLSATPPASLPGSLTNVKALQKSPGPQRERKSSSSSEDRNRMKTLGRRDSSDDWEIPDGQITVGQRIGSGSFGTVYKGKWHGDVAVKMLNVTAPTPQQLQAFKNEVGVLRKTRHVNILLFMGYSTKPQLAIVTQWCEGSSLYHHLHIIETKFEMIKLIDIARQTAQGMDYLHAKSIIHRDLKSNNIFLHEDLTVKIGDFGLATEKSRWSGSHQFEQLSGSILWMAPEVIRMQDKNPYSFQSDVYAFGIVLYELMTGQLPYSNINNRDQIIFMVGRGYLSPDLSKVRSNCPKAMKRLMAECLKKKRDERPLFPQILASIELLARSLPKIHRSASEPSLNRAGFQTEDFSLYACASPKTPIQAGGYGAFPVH
T2 sequence (P15056 whole entry G466V): as the sequence (P15056 whole entry V600E) above, with G466V, E600V counted along it

The DC50 is the concentration giving 50% degradation. The term Dmax denotes the greatest extent of degradation seen. A high value points to deep degradation. As for `O=C1CCC(N2Cc3cc(C4CCN(C[C@@H]5CCN(c6ccc(-c7cnc8[nH]cc(C(=O)c9c(F)ccc(NS(=O)(=O)N%10CC[C@@H](F)C%10)c9F)c8c7)cc6)C[C@@H]5F)CC4)ccc3C2=O)C(=O)N1` (stereo partly drawn) [Compound 125, (3R)-N-[3-(5-{4-[(3R,4S)-4-({4-[2-(2,6-dioxopiperidin-3-yl)-1-oxo-2,3-dihydro-1H-isoindol-5-yl]piperidin-1-yl}methyl)-3-fluoropiperidin-1-yl]phenyl}-1H-pyrrolo[2,3-b]pyridine-3-carbonyl)-2,4-difluorophenyl]-3-fluoropyrrolidine-1-sulfonamide], the values for the DC50 in experiment [1] and in experiment [2] were 5 to 50 nM and 1 to 10 nM, respectively. The Dmax was 35 to 70% in experiment [1] and over 70% in experiment [2].
Consider `CN(CCN1CCN(c2ccc(-c3cnc4[nH]cc(C(=O)c5c(F)ccc(NS(=O)(=O)N6CC[C@@H](F)C6)c5F)c4c3)cc2)CC1)[C@H]1C[C@@H](Oc2ccc3c(c2)CN(C2CCC(=O)NC2=O)C3=O)C1` (stereo partly drawn) [Compound 126, (3R)-N-[2,4-difluoro-3-(5-{4-[4-(2-{methyl[(1s,3s)-3-{[2-(2,6-dioxopiperidin-3-yl)-1-oxo-2,3-dihydro-1H-isoindol-5-yl]oxy}cyclobutyl]amino}ethyl)piperazin-1-yl]phenyl}-1H-pyrrolo[2,3-b]pyridine-3-carbonyl)phenyl]-3-fluoropyrrolidine-1-sulfonamide], for which, in experiment [1], the DC50 lay within 5 to 50 nM and the Dmax was 35 to 70%. Also, in experiment [2], the DC50 fell in the range of 1 to 10 nM and the Dmax was in the range of 35 to 70%.
With `O=C1CCC(N2Cc3cc(C4CCN(CCC5CCN(c6ccc(-c7cnc8[nH]cc(C(=O)c9c(F)ccc(NS(=O)(=O)N%10CC[C@@H](F)C%10)c9F)c8c7)cc6)CC5)CC4)ccc3C2=O)C(=O)N1` (stereo partly drawn) [Compound 127, (3R)-N-[3-(5-{4-[4-(2-{4-[2-(2,6-dioxopiperidin-3-yl)-1-oxo-2,3-dihydro-1H-isoindol-5-yl]piperidin-1-yl}ethyl)piperidin-1-yl]phenyl}-1H-pyrrolo[2,3-b]pyridine-3-carbonyl)-2,4-difluorophenyl]-3-fluoropyrrolidine-1-sulfonamide], in experiment [1], the DC50 is under 5 nM and the Dmax was under 35%. Besides, in experiment [2], the DC50 was 1 to 10 nM and the Dmax was over 70%.
In the case of `O=C1CC[C@H](N2Cc3cc(C[C@@H](O)CN4CC5(C4)CN(c4ccc(-c6cnc7[nH]cc(C(=O)c8c(F)ccc(NS(=O)(=O)N9CC[C@@H](F)C9)c8F)c7c6)cc4)C5)ccc3C2=O)C(=O)N1` [Compound 128, (3R)-N-{3-[5-(4-{6-[(2R)-3-{2-[(3S)-2,6-dioxopiperidin-3-yl]-1-oxo-2,3-dihydro-1H-isoindol-5-yl}-2-hydroxypropyl]-2,6-diazaspiro[3.3]heptan-2-yl}phenyl)-1H-pyrrolo[2,3-b]pyridine-3-carbonyl]-2,4-difluorophenyl}-3-fluoropyrrolidine-1-sulfonamide], in experiment [1], the half-maximal degradation concentration (DC50) fell in the range of 5 to 50 nM and the Dmax was in the range of 35 to 70%. Also, in experiment [2], the DC50 was 1 to 10 nM and the Dmax is over 70%.
The corresponding values for `O=C1CC[C@@H](N2Cc3cc(C[C@@H](O)CN4CC5(C4)CN(c4ccc(-c6cnc7[nH]cc(C(=O)c8c(F)ccc(NS(=O)(=O)N9CC[C@@H](F)C9)c8F)c7c6)cc4)C5)ccc3C2=O)C(=O)N1` [Compound 129, (3R)-N-{3-[5-(4-{6-[(2R)-3-{2-[(3R)-2,6-dioxopiperidin-3-yl]-1-oxo-2,3-dihydro-1H-isoindol-5-yl}-2-hydroxypropyl]-2,6-diazaspiro[3.3]heptan-2-yl}phenyl)-1H-pyrrolo[2,3-b]pyridine-3-carbonyl]-2,4-difluorophenyl}-3-fluoropyrrolidine-1-sulfonamide] are 5 to 50 nM, 35 to 70%, 1 to 10 nM and over 70%.
Take `O=C1CCC(N2Cc3cc(C[C@H](O)CN4CC5(C4)CN(c4ccc(-c6cnc7[nH]cc(C(=O)c8c(F)ccc(NS(=O)(=O)N9CC[C@@H](F)C9)c8F)c7c6)cc4)C5)ccc3C2=O)C(=O)N1` (stereo partly drawn) [Compound 130, (3R)-N-{3-[5-(4-{6-[(2S)-3-[2-(2,6-dioxopiperidin-3-yl)-1-oxo-2,3-dihydro-1H-isoindol-5-yl]-2-hydroxypropyl]-2,6-diazaspiro[3.3]heptan-2-yl}phenyl)-1H-pyrrolo[2,3-b]pyridine-3-carbonyl]-2,4-difluorophenyl}-3-fluoropyrrolidine-1-sulfonamide]: in experiment [1], the DC50 was 5 to 50 nM and the Dmax lay within 35 to 70%. Moreover, in experiment [2], the DC50 lay within 1 to 10 nM and the Dmax lay in the range of 35 to 70%.
With `O=C1CCC(N2Cc3cc(N4CCN(CC5CN(c6ccc(-c7cnc8[nH]cc(C(=O)c9c(F)ccc(NS(=O)(=O)N%10CC[C@@H](F)C%10)c9F)c8c7)cc6F)C5)CC4)ccc3C2=O)C(=O)N1` (stereo partly drawn) [Compound 131, (3R)-N-[3-(5-{4-[3-({4-[2-(2,6-dioxopiperidin-3-yl)-1-oxo-2,3-dihydro-1H-isoindol-5-yl]piperazin-1-yl}methyl)azetidin-1-yl]-3-fluorophenyl}-1H-pyrrolo[2,3-b]pyridine-3-carbonyl)-2,4-difluorophenyl]-3-fluoropyrrolidine-1-sulfonamide], in experiment [1], the DC50 lay in the range of 5 to 50 nM and the Dmax was 35 to 70%. Moreover, in experiment [2], the DC50 was 1 to 10 nM and the Dmax lay in the range of 35 to 70%.
With `COc1cc(N2CC3(CN(CC4CCN(c5ccc(-c6cnc7[nH]cc(C(=O)c8c(F)ccc(NS(=O)(=O)N9CC[C@@H](F)C9)c8F)c7c6)cc5F)CC4)C3)C2)cc2c1C(=O)N(C1CCC(=O)NC1=O)C2` (stereo partly drawn) [Compound 132, (3R)-N-[3-(5-{4-[4-({6-[2-(2,6-dioxopiperidin-3-yl)-7-methoxy-1-oxo-2,3-dihydro-1H-isoindol-5-yl]-2,6-diazaspiro[3.3]heptan-2-yl}methyl)piperidin-1-yl]-3-fluorophenyl}-1H-pyrrolo[2,3-b]pyridine-3-carbonyl)-2,4-difluorophenyl]-3-fluoropyrrolidine-1-sulfonamide], the results for the DC50 in experiment [1] and in experiment [2] were 5 to 50 nM and under 1 nM, respectively. The Dmax was 35 to 70% in experiment [1] and over 70% in experiment [2].
Regarding `COc1cc(N2CC3(CN(CC4CCN(c5ccc(-c6cnc7[nH]cc(C(=O)c8c(F)ccc(NS(=O)(=O)N9CC[C@@H](F)C9)c8F)c7c6)cn5)CC4)C3)C2)cc2c1C(=O)N(C1CCC(=O)NC1=O)C2` (stereo partly drawn) [Compound 133, (3R)-N-[3-(5-{6-[4-({6-[2-(2,6-dioxopiperidin-3-yl)-7-methoxy-1-oxo-2,3-dihydro-1H-isoindol-5-yl]-2,6-diazaspiro[3.3]heptan-2-yl}methyl)piperidin-1-yl]pyridin-3-yl}-1H-pyrrolo[2,3-b]pyridine-3-carbonyl)-2,4-difluorophenyl]-3-fluoropyrrolidine-1-sulfonamide], in experiment [1], the DC50 lay in the range of 5 to 50 nM and the Dmax is 35 to 70%. Besides, in experiment [2], the DC50 is under 1 nM and the Dmax is over 70%.
Turning to `COc1cc(N2CC3(CN(CC4CCN(c5ncc(-c6cnc7[nH]cc(C(=O)c8c(F)ccc(NS(=O)(=O)N9CC[C@@H](F)C9)c8F)c7c6)cn5)CC4)C3)C2)cc2c1C(=O)N(C1CCC(=O)NC1=O)C2` (stereo partly drawn) [Compound 134, (3R)-N-[3-(5-{2-[4-({6-[2-(2,6-dioxopiperidin-3-yl)-7-methoxy-1-oxo-2,3-dihydro-1H-isoindol-5-yl]-2,6-diazaspiro[3.3]heptan-2-yl}methyl)piperidin-1-yl]pyrimidn-5-yl}-1H-pyrrolo[2,3-b]pyridine-3-carbonyl)-2,4-difluorophenyl]-3-fluoropyrrolidine-1-sulfonamide], the half-maximal degradation concentration (DC50) in experiment [1] was 5 to 50 nM; in experiment [2], under 1 nM. In addition, the Dmax in experiment [1] is 35 to 70%; in experiment [2], over 70%.
For the molecule `O=C1CCC(N2Cc3cc(N4CCN(CCCC5CCN(c6ccc(-c7cnc8[nH]cc(C(=O)c9c(F)ccc(NS(=O)(=O)N%10CC[C@@H](F)C%10)c9F)c8c7)cc6)CC5)CC4)ccc3C2=O)C(=O)N1` (stereo partly drawn) [Compound 135, (3R)-N-[3-(5-{4-[4-(3-{4-[2-(2,6-dioxopiperidin-3-yl)-1-oxo-2,3-dihydro-1H-isoindol-5-yl]piperazin-1-yl}propyl)piperidin-1-yl]phenyl}-1H-pyrrolo[2,3-b]pyridine-3-carbonyl)-2,4-difluorophenyl]-3-fluoropyrrolidine-1-sulfonamide], in experiment [1], the DC50 lay in the range of 5 to 50 nM and the Dmax lay in the range of 35 to 70%. Further, in experiment [2], the DC50 was 1 to 10 nM and the Dmax was over 70%.
For the molecule `O=C1CCN(c2ccc(N3CCN(CCc4ccc(-c5cnc6[nH]cc(C(=O)c7c(F)ccc(NS(=O)(=O)N8CC[C@@H](F)C8)c7F)c6c5)cc4)CC3)cc2F)C(=O)N1` [Compound 136, (3R)-N-(3-{5-[4-(2-{4-[4-(2,4-dioxo-1,3-diazinan-1-yl)-3-fluorophenyl]piperazin-1-yl}ethyl)phenyl]-1H-pyrrolo[2,3-b]pyridine-3-carbonyl}-2,4-difluorophenyl)-3-fluoropyrrolidine-1-sulfonamide], in experiment [1], the DC50 was 50 to 500 nM and the Dmax is under 35%. Also, the DC50 in experiment [2] was over 30 nM.

The values above are taken from US12180193B2, “Accelerating fibrosarcoma protein degrading compounds and associated methods of use” (Arvinas Operations, Inc., priority 2020, dated 2024).
